In patent US10550100B2, “5-[3-[piperzin-1-yl]-3-oxo-propyl]-imidazolidine-2,4-dione derivatives as ADAMTS 4 and 5 inhibitors for treating E.G. osteoarthritis” (GALAPAGOS NV, priority 2016, dated 2020) one finds IC50 data, which are given here for 17 compounds.

Like-named read-outs stand apart in the source and are kept apart here.

The term IC50 denotes the midpoint of a concentration-inhibition curve.

Format in all cases: biochemical
One experiment concerns the target human ADAMTS-5 (Homo sapiens (Human), UniProt Q9UNA0). In words: hADAMTS-5 TBIS-1 cleavage assay, Protocol 3. The following applies: Protocol 3, TBIS-1 substrate, 90 min at 37° C.; read-out: hADAMTS-5 potency IC50. The method, then: The reaction is initiated by adding to the assay plate TBIS-1 (10 μL, 4.5 μM, Anaspec) in the same buffer.
Finally, the fluorescence is read on the Envision (Perkin Elmer) after an incubation of 90 min at 37° C. (Excitation 485 nm, emission 530).

Another experiment addresses human ADAMTS6 (Homo sapiens (Human), UniProt Q9UKP5). In words: hADAMTS-6 520 MMP FRET substrate XII cleavage assay. The following applies: 37° C. for 2 h, read-out: hADAMTS-6 potency IC50. The method, boiled down:
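FRET cleavage of 520 MMP Substrate XII (Arg-Pro-Lys-Pro-Tyr-Ala-Nva-Trp-Met-Lys) by 0.73 nM enzyme in 25 mM Tris pH8.0, 0.05% CHAPS, 2.5 mM CaCl2. Compound dilution series from 20 μM top, 1/5 steps; substrate added from 1 μM stock, 2 h at 37° C. Fluorescence read at exc485/em530 for IC50.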

Another experiment deals with human TACE (Homo sapiens (Human), UniProt P78536). In words: hTACE 5FAM-[…]-5TAMRA cleavage assay. The following applies: 75 min at room temperature, read-out: hTACE potency IC50. The method, then: Finally, the fluorescence is read on the Envision (Perkin Elmer) after an incubation of 75 min at room temperature (Excitation 485 nm, Emission 530).
Chain of human TACE (P78536 215-671): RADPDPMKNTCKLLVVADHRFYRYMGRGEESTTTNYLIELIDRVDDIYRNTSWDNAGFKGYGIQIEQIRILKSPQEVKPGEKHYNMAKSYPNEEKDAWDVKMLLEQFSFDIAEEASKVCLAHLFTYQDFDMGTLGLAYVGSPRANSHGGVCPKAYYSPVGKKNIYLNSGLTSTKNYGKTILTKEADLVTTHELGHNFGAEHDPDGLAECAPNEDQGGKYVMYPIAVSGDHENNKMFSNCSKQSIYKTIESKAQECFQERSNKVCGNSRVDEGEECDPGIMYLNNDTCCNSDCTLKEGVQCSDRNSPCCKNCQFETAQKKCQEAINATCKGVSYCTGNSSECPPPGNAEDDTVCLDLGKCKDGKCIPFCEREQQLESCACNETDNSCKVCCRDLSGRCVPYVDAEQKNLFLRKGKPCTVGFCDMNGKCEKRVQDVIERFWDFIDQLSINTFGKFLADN
Another experiment has as its target human MMP13 (Homo sapiens (Human), UniProt P45452). In words: hMMP13 390 MMP FRET Substrate I cleavage assay, Protocol 2. As to conditions: Protocol 2, 390 MMP FRET Substrate I; read-out: hMMP-13 potency IC50. The method, then: The basis for the assay is the cleavage of the substrate 390 MMP FRET Substrate I (Anaspec Cat# AS-27076) by human MMP13 (Chemicon, Cat#CC068).
Human MMP13 is preactivated by incubated the enzyme in the same buffer complemented with 1 mM freshly prepared p-Aminophenylmercuric acetate (AMPA) for 1 h at 37° C.
(§1) The reaction is initiated by adding to the assay plate 390 MMP FRET Substrate I (10 μL, 2.5 μM) in the same buffer.
Finally, the fluorescence is read on the Envision (Perkin Elmer) after an incubation of 45 min at room temperature (Excitation 485 nm, Emission 530).

Another experiment has as its target human MMP14 (Homo sapiens (Human), UniProt P50281). Description: hMMP14 390 MMP FRET Substrate I cleavage assay. The following applies: 60 min at room temperature, read-out: hMMP-14 potency IC50. How it is done:
The basis for the assay is the cleavage of the substrate 390 MMP FRET Substrate I (Anaspec Cat# AS-27076) by human MMP14 (Biomol, Cat#SE-259).
as §1
Finally, the fluorescence is read on the Envision (Perkin Elmer) after an incubation of 60 min at room temperature (Excitation 485 nm, Emission 530).

Chain of human ADAMTS6 (Q9UKP5 other isoform, or with tags, fused parts or gaps): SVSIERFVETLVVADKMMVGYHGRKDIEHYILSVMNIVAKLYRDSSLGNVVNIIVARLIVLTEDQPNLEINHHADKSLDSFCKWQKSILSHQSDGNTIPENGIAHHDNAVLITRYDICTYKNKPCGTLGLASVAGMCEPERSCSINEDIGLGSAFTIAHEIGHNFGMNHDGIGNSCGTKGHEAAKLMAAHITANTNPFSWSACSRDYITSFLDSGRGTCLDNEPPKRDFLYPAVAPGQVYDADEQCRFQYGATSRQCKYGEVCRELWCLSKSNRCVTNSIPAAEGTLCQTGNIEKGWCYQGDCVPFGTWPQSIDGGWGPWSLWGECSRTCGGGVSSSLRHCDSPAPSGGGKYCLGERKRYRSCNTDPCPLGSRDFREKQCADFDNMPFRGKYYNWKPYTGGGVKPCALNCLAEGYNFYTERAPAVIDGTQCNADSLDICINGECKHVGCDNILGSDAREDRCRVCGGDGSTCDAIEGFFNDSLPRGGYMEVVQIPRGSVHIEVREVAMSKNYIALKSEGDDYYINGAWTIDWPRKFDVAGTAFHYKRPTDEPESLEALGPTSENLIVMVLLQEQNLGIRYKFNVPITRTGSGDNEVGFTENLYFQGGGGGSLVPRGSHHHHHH
Chain of human ADAMTS-5 (Q9UNA0 262-930): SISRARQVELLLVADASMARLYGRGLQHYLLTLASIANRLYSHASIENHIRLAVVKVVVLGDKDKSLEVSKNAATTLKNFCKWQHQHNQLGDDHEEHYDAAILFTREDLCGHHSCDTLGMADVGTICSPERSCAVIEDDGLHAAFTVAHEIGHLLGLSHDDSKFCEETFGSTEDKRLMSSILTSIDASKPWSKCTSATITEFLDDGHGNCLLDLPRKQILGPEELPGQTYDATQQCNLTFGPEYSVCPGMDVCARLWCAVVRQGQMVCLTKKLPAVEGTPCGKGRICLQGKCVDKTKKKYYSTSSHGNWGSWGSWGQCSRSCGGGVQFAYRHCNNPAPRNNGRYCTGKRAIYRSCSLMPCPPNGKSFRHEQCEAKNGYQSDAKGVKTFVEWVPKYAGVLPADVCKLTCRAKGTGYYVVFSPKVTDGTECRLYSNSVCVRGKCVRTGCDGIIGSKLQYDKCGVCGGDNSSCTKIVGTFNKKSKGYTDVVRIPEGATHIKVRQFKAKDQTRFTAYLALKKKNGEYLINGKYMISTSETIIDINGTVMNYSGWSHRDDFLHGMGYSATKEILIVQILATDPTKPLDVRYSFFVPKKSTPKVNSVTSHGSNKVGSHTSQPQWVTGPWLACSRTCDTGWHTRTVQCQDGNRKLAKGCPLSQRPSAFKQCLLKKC

Turning to `COC[C@]1(C[C@H](C)C(=O)N2CCC(c3cc(C)c(Cl)c(OC)c3)CC2)NC(=O)NC1=O` (stereo in doubt) [Cpd 114, 5-[3-[4-(4-chloro-3-methoxy-5-methyl-phenyl)-1-piperidyl]-2-methyl-3-oxo-propyl]-5-(methoxymethyl) imidazolidine-2,4-dione], the IC50 at human ADAMTS-5 was 25 to 50 nM; at human ADAMTS6, 0.001 to 25 nM; on human TACE (5FAM-[…]-5TAMRA), 50 to 100 nM; at human MMP13 it was more than 100 nM; at human MMP14, more than 100 nM.

Turning to `COc1cc(Cl)c(Cl)cc1C1CCN(C(=O)CC[C@H]2NC(=O)NC2=O)CC1` [Cpd 61, (R)-5-(3-(4-(4,5-dichloro-2-methoxyphenyl)piperidin-1-tl)-3-oxopropyl) imidazolidine-2,4-dione], the IC50 on human ADAMTS-5 is more than 100 nM; on human ADAMTS6, 0.001 to 25 nM; at human TACE (5FAM-LAQAVRSSSRK-5TAMRA) it was more than 100 nM; on human MMP13, more than 100 nM; on human MMP14 it was more than 100 nM.

As for `Cc1cc(Cl)c(F)cc1C1CCN(C(=O)CCC2(C)NC(=O)NC2=O)CC1` (stereo not shown) [Cpd 64, 5-(3-(4-(4-chloro-5-fluoro-2-methylphenyl)piperidin-1-yl)-3-oxopropyl)-5-methyl-imidazolidine-2,4-dione], the IC50 at human ADAMTS-5 was more than 100 nM; at human ADAMTS6 it was 25 to 50 nM; at human TACE (5FAM-LAQAVRSSSRK-5TAMRA), more than 100 nM; at human MMP13, more than 100 nM; at human MMP14, more than 100 nM.

With `Cc1cc(Cl)c(Cl)cc1C1CCN(C(=O)CCC2(C)NC(=O)NC2=O)CC1` (stereo not shown) [Cpd 71, 5-(3-(4-(4,5-dichloro-2-methylphenyl)piperidin-1-yl)-3-oxopropyl)-5-methylimidazolidine-2,4-dione], the IC50 is more than 100 nM on human ADAMTS-5; 0.001 to 25 nM on human ADAMTS6; 50 to 100 nM at human TACE (5FAM-[…]-5TAMRA); more than 100 nM on human MMP13; more than 100 nM at human MMP14.

For `COc1cc(C2CCN(C(=O)CCC3(C)NC(=O)NC3=O)CC2)cc(OC)c1F` (stereo not shown) [Cpd 72], the IC50 is more than 100 nM at human ADAMTS-5; 0.001 to 25 nM on human ADAMTS6; more than 100 nM on human TACE (5FAM-LAQAVRSSSRK-5TAMRA); more than 100 nM at human MMP13; more than 100 nM at human MMP14.

Turning to `COc1cc(C2CCN(C(=O)CCC3(C)NC(=O)NC3=O)CC2)cc(Cl)c1F` (stereo not shown) [Cpd 73, 5-(3-(4-(3-chloro-4-fluoro-5-methoxyphenyl)piperidin-1-yl)-3-oxopropyl)-5-methylimidazolidine-2,4-dione], the IC50 on human ADAMTS-5 is more than 100 nM; on human ADAMTS6, 0.001 to 25 nM; at human TACE (5FAM-LAQAVRSSSRK-5TAMRA), more than 100 nM; at human MMP13, more than 100 nM; on human MMP14 it was more than 100 nM.

On to `COc1c(Cl)cccc1C1CCN(C(=O)CC[C@H]2NC(=O)NC2=O)CC1` [Cpd 74, (R)-5-(3-(4-(3-chloro-2-methoxyphenyl)piperidin-1-yl)-3-oxopropyl) imidazolidine-2,4-dione], for which the IC50 at human ADAMTS-5, on human ADAMTS6, at human TACE (5FAM-LAQAVRSSSRK-5TAMRA), at human MMP13 and at human MMP14 was more than 100 nM throughout.

Turning to `COc1c(Cl)cccc1C1CCN(C(=O)CCC2(C)NC(=O)NC2=O)CC1` (stereo not shown) [Cpd 75, 5-(3-(4-(3-chloro-2-methoxyphenyl)piperidin-1-yl)-3-oxopropyl)-5-methylimidazolidine-2,4-dione], the IC50 on human ADAMTS-5, at human ADAMTS6, on human TACE (5FAM-LAQAVRSSSRK-5TAMRA), at human MMP13 and at human MMP14 was more than 100 nM in each case.

For `COc1cc(Cl)ccc1C1CCN(C(=O)CC[C@@]2(C)NC(=O)NC2=O)CC1` [Cpd 79, (5R)-5-[3-[4-(4-chloro-2-methoxy-phenyl)-1-piperidyl]-3-oxo-propyl]-5-methyl-imidazolidine-2,4-dione], the IC50 was more than 100 nM at human ADAMTS-5; 0.001 to 25 nM on human ADAMTS6; more than 100 nM on human TACE (5FAM-LAQAVRSSSRK-5TAMRA); more than 100 nM on human MMP13; more than 100 nM at human MMP14.

`COc1cc(C2CCN(C(=O)CC[C@@]3(C)NC(=O)NC3=O)CC2)cc(Cl)c1F` [Cpd 80, (5R)-5-[3-[4-(3-chloro-4-fluoro-5-methoxy-phenyl)-1-piperidyl]-3-oxo-propyl]-5-methyl-imidazolidine-2,4-dione]: the IC50 at human ADAMTS-5 was 50 to 100 nM; on human ADAMTS6, 0.001 to 25 nM; at human TACE (5FAM-[…]-5TAMRA) it was 25 to 50 nM; at human MMP13 it was more than 100 nM; on human MMP14, more than 100 nM.

As for `COc1cc(C2CCN(C(=O)CC[C@@]3(C)NC(=O)NC3=O)CC2)cc(OC)c1F` [Cpd 81, (5R)-5-[3-[4-(4-fluoro-3,5-dimethoxy-phenyl)-1-piperidyl]-3-oxo-propyl]-5-methyl-imidazolidine-2,4-dione], the IC50 at human ADAMTS-5 is 50 to 100 nM; on human ADAMTS6, 0.001 to 25 nM; at human TACE (5FAM-[…]-5TAMRA), 25 to 50 nM; at human MMP13 it was more than 100 nM; on human MMP14 it was more than 100 nM.

Turning to `CCOc1cc(C2CCN(C(=O)CC[C@@]3(C)NC(=O)NC3=O)CC2)cc(OC)c1Cl` [Cpd 87, (5R)-5-[3-[4-(4-chloro-3-ethoxy-5-methoxy-phenyl)-1-piperidyl]-3-oxo-propyl]-5-methyl-imidazolidine-2,4-dione], the half-maximal inhibitory concentration (IC50) at human ADAMTS-5 was more than 100 nM; on human ADAMTS6, 0.001 to 25 nM; at human TACE (5FAM-[…]-5TAMRA) it was 50 to 100 nM; at human MMP13, more than 100 nM; at human MMP14, more than 100 nM.

For the compound `COc1cc(Cl)c(C)cc1C1CCN(C(=O)CC[C@@]2(C)NC(=O)NC2=O)CC1` [Cpd 89, (5R)-5-[3-[4-(4-chloro-2-methoxy-5-methyl-phenyl)-1-piperidyl]-3-oxo-propyl]-5-methyl-imidazolidine-2,4-dione], the IC50 on human ADAMTS-5 was more than 100 nM; on human ADAMTS6 it was 0.001 to 25 nM; on human TACE (5FAM-[…]-5TAMRA), 50 to 100 nM; at human MMP13, more than 100 nM; at human MMP14, more than 100 nM.

Take `COc1cc(C2CCN(C(=O)CC[C@@]3(C)NC(=O)NC3=O)CC2)cc(N(C)C)c1Cl` [Cpd 90, (5R)-5-[3-[4-[4-chloro-3-(dimethylamino)-5-methoxy-phenyl]-1-piperidyl]-3-oxo-propyl]-5-methyl-imidazolidine-2,4-dione]: the IC50 at human ADAMTS-5 is more than 100 nM; at human ADAMTS6, 0.001 to 25 nM; at human TACE (5FAM-[…]-5TAMRA), 50 to 100 nM; at human MMP13 it was more than 100 nM; at human MMP14, more than 100 nM.

With `Cc1cc(C2CCN(C(=O)CC[C@@]3(C)NC(=O)NC3=O)CC2)cc(C)c1Cl` [Cpd 93, (5R)-5-[3-[4-(4-chloro-3,5-dimethyl-phenyl)-1-piperidyl]-3-oxo-propyl]-5-methyl-imidazolidine-2,4-dione], the IC50 was more than 100 nM on human ADAMTS-5; 0.001 to 25 nM on human ADAMTS6; 50 to 100 nM on human TACE (5FAM-[…]-5TAMRA); more than 100 nM at human MMP13; more than 100 nM on human MMP14.

For the compound `COc1cc(Cl)c(Cl)cc1C1CCN(C(=O)CC[C@@]2(C)NC(=O)NC2=O)CC1` [Cpd 96, (5R)-5-[3-[4-(4,5-dichloro-2-methoxy-phenyl)-1-piperidyl]-3-oxo-propyl]-5-methyl-imidazolidine-2,4-dione], the IC50 is more than 100 nM on human ADAMTS-5; 0.001 to 25 nM at human ADAMTS6; 50 to 100 nM at human TACE (5FAM-[…]-5TAMRA); more than 100 nM at human MMP13; more than 100 nM on human MMP14.

On to `COc1cc(C2CCN(C(=O)CC[C@@]3(C)NC(=O)NC3=O)CC2)cc(C)c1Cl` [Cpd 98, (5R)-5-[3-[4-(4-chloro-3-methoxy-5-methyl-phenyl)-1-piperidyl]-3-oxo-propyl]-5-methyl-imidazolidine-2,4-dione], for which the IC50 on human ADAMTS-5 was 50 to 100 nM; at human ADAMTS6 it was 0.001 to 25 nM; on human TACE (5FAM-[…]-5TAMRA), 25 to 50 nM; at human MMP13, more than 100 nM; on human MMP14 it was more than 100 nM.
